Data on two molecules can be found in patent US5563176A (priority 1994, dated 1996).

Data set [1] relates to human lung adenocarcinoma MV522. As to conditions: in vivo.
Data set [2] concerns B16 melanoma. Kind of data set: in vitro activity, B16. The data set is classed as cell-based.
A short description of data set [3]: tolerability in nude mice (MX-1 study). The data set is classed as in vivo. From the text: (§1) Nude mice are implanted subcutaneously (s.c.) by trocar with fragments of MX-1 mammary carcinomas harvested from s.c. growing MX-1 tumors in nude mice hosts. When tumors are approximately 5 mm×5 mm in size (usually about ten days after inoculation), the animals are pair-matched into treatment and control groups. Each group contains 10 tumored mice, each of which is eartagged and followed individually throughout the experiment. The administration of drugs or vehicle begins the day the animals are pair-matched (day 1). The doses, route of drug administration and schedule are selected as appropriate for the study in question, If the maximum tolerated dose (MTD) of an agent is not known, it was determined in an initial dosing experiment in non-tumored mice. In a typical experiment, drugs are given at their MTD and 1/2 MTD doses i.p. on a daily×5 schedule.
(§2) HMAF was evaluated against the MX-1 mammary carcinoma xenograft at the MTD of 7.5 mg/kg, and also at 5.0 mg/kg, i.p. daily×5, delivered in 10% cremophor, 20% ethanol and 70% isotonic saline. The 7.5 mg mg/kg dose caused no lethality, or unacceptable weight loss to the nude mice (day 8 weight loss=9.5%). […] The 5.0 mg/kg dose produced 2 complete regressions, and an average 88% tumor shrinkage in the other 8 mice.

In data set [4] the test system is B16 melanoma. Kind of data set: B16 melanoma in mice. The data set is classed as in vivo. As to conditions: same doses as P388.
Data set [5] in a line: dosing/tolerability in B6D2F1 mice. The class given is in vivo. Here is the method:
(§3) HMAF was also evaluated against P388 leukemia in mice. The tumor inoculum is prepared by removing ascites fluid containing P388 cells from tumored B6D2F1 mice, centrifuging the cells, and then resuspending the leukemia cells in saline. Mice receive 1×10^6 P388 cells i.p. on day 0. Initial dosing experiments on a daily×5 schedule in B6D2F1 mice established the MTD of HMAF as 7.5 mg/kg. HMAF was tested at doses of 7.5 and 5.0 mg/kg vs. the P388 leukemia model. […] A T/C value of 150 means that treated mice lived 50% longer than the controls. Weight loss at the higher dose was 13% on day 8, again confirming that 7.5 mg/kg is the MTD for this agent on the daily×5 schedule.

The subject of another data set is HL60 cells. Kind of data set: cells. The data set is classed as cell-based. Conditions: Homo sapiens, HL-60, 48 h, read-out: 48 hour IC50.
The subject of the next data set is MV522. Description: cells. The class given is cell-based. Conditions: Homo sapiens, MV522, 48 h, read-out: 48 hour IC50.
A further data set relates to 8392 cells. Description: cells. Conditions: 48 h, read-out: 48 hour IC50. The data set is classed as cell-based.
A further data set has as its system HL60 cells (myeloid). Description: cells. The class given is cell-based, human.
For the next data set, the system named is HT-29 human colon tumor. Description: in vitro activity, HT-29. The data set is classed as cell-based. As to conditions: HT-29, HT29.
The next data set concerns P388 leukemia. Description: P388 leukemia in mice. The data set is classed as in vivo, murine. Here is the method:
as §3

In the next data set the test system is MCF-7 human breast tumor. Kind of data set: in vitro activity, MCF-7. The class given is cell-based.
Another data set concerns 8392 cells (B-cell). Description: cells. The class given is cell-based. Conditions: 2 h, read-out: Two hour IC50.
Another data set relates to murine P388 cells. Description: in vitro activity, P388. The class given is cell-based.
The test system of data set [6] is human lung adenocarcinoma MV522. Kind of data set: animal or person. Conditions: MV522, ip, read-out: life span.
For a further data set, the system named is MV522 cells. Description: cells. The class given is cell-based, human.
Data set [7] has as its system MX-1 mammary carcinoma xenograft. Kind of data set: MX-1 human breast tumor xenograft in nude mice. The class given is in vivo.
Text: as §1
The experiment is usually terminated when control tumors reach a size of 2-3 g. Mice are weighed twice weekly, and tumor measurements are taken by calipers twice weekly, starting on day 1. These tumor measurements are converted to mg tumor weight by a well-known formula, and from these calculated tumor weights the termination date can be determined. Upon termination, all mice are weighed, sacrificed, and their tumors excised. Tumors, are weighed, and the mean tumor weight per group is calculated. In this model, the mean treated tumor weight/mean control tumor weight×100% (T/C) is subtracted from 100% to give the tumor growth inhibition (TGI) for each group).
Some drugs cause minor shrinkage in the MX-1 model. With these agents, the final weight of a given tumor is subtracted from its own weight at the start of treatment on day 1. This difference divided by the initial tumor weight is the % shrinkage. A mean % tumor shrinkage can be calculated from data from the mice in a group that experienced MX-1 regressions. If the tumor completely disappears in a mouse, this is considered a complete regression or complete tumor shrinkage.
as §2

The subject of a further data set is Dunning leukemia. As to conditions: NCI DCT; cited from earlier work.
Data set [8] is described as follows: kinetics of the reaction with dilute HCl. Conditions: illudin M. The data set is classed as physicochemical. From the text: Consistent with the above hypothesis are the results of the kinetics of the reaction of illudin M and dehydroilludin M with dilute HCl. […] In the reaction with dehydroilludin M, no intermediate could be detected by NMR spectroscopy. Presumably it formed too slowly and is too short-lived to be detected.

In another data set the test system is HL-60 cells. Kind of data set: cells. The class given is cell-based, human. As to conditions: Homo sapiens, HL-60.

SMILES strings stand for the structures. Values after ≈ are worked out from the molar mass of the structure shown. Values joined by “and” are separate entries in the source; they are usually repeats but may differ in a detail not shown here. Equal values may be shown once. Read-outs that look alike come from different tables or passages of the source.

For the molecule `CC1=C(CO)C2=C(C)C3(CC3)[C@@](C)(O)C(=O)C2=C1` [6-hydroxymethylacylfulvene], the “efficacy in this model” value in data set [1] is listed as “markedly increased the life span”. For the same molecule, in data set [1], the “life span versus control” value is on record as “lived significantly longer”. For the same molecule, in data set [1], the “toxic side effects (activity, weight gain, food or water intake)” value was “no evidence of toxic side effects”. The tumor growth response result in data set [1] (10 mg/kg) is given as “Tumor regression”. Besides, in data set [1] (ip, 10 mg/kg), the animals alive was 2 animals alive, ? cured. Besides, in data set [1] (ip, 10 mg/kg), the life span is 233 ± 18% and 232 ± 20% and > 204%. Moreover, the IC50 – broadly, the concentration that gives 50% inhibition – in the data set on B16 melanoma [2] (B16, listed as HMAF) is 4.65 µg/mL and 3.73 µg/mL; in the data set on B16 melanoma [2] (Mus musculus, B16, B16, read-out: IC50) it was 3.73 to 4.65 µg/mL (≈ 15.1 to 18.9 µM); with HL60 cells it was 4 ± 1 nM; in the data set with MV522 it was 73 ± 8 nM; in the data set on 8392 cells, 76 ± 4 nM; in the data set with HL60 cells (myeloid) (Homo sapiens, HL-60, 2 h, read-out: Two hour IC50), 150 ± 11 nM. For the same molecule, the IC50 in the data set with HT-29 human colon tumor is 0.05 µg/mL (≈ 0.203 µM); in the data set with MCF-7 human breast tumor (Homo sapiens, MCF7, MCF-7, read-out: IC50), 0.036 to 0.07 µg/mL (≈ 0.146 to 0.284 µM); with MCF-7 human breast tumor (MCF-7, listed as HMAF), 0.036 µg/mL and 0.043 µg/mL; in the data set with 8392 cells (B-cell), 7360 nM; in the data set on murine P388 cells (Mus musculus, P388, P388, read-out: IC50), 0.16 to 0.32 µg/mL (≈ 0.65 to 1.3 µM); in the data set on murine P388 cells (P388, listed as HMAF) it was 0.165 µg/mL and 0.319 µg/mL. The IC50 in the data set with MV522 cells (Homo sapiens, MV522, 2 h, read-out: Two hour IC50) stood at 114 ± 28 nM. For the same molecule, the lethality result in [3] (7.5 mg/kg i.p. daily×5) is “no lethality”. The weight loss came out at 9.5% in data set [3] (7.5 mg/kg i.p. daily×5, day 8) and 13% in [5] (higher dose, day 8, P388 study). In addition, the MTD (commonly the highest dose tested that stayed within the study's limit of toxicity) in [3] (mouse, in vivo, ip, i.p. daily×5, nude mice) came out at 7.5 mg/kg; in data set [5] (mouse, in vivo, daily×5, B6D2F1 mice) it was 7.5 mg/kg. Also, the “activity against B16 melanoma in mice” value with B16 melanoma [4] was “inactive”. Moreover, the “toxicity to target tumor cells” value in the data set with HL60 cells (myeloid) is on record as “markedly toxic”; in the data set with MV522 cells (MV522, 2 and 48 hour), “markedly toxic”. In addition, the figures for the “treated/control (T/C)” value in the data set on P388 leukemia (5.9 mg/kg) and in the data set with P388 leukemia (6.5 mg/kg) were 137 and 140, respectively. The response vs control in vivo at 1 mg/kg in [6] worked out at 135 ± 10%. Further, the response vs control in vivo at 5 mg/kg in data set [6] worked out at 154 ± 13%. In addition, the complete regressions in data set [7] (5.0 mg/kg i.p. daily×5, of 10 mice) amounted to 2. The average tumor shrinkage is recorded as 88% in data set [7] (5.0 mg/kg i.p. daily×5, other 8 mice) and 91% in data set [7] (7.5 mg/kg i.p. daily×5, other 6 mice). The molecule further showed a complete tumor regressions in data set [7] (7.5 mg/kg i.p. daily×5, of 10 mice) of 4 mice. The “activity in MX-1 xenograft” value in data set [7] (in vivo) is recorded as “highly active”.

In the case of `CC1=C2C(=CC(C)(C)C2O)C(=O)[C@](C)(O)C12CC2` (stereo partly shown) [Illudin M, reference compound], the “life span of rats with Dunning leukemia” value in the data set on Dunning leukemia is given as “significantly increased the life span”. Further, in data set [8], the half-life (usually how long it takes for the measured level to halve) is 2.47 h and the “k, pseudo first-order reaction” value was 4.7×10^-3. In the data set on HL-60 cells, the IC50 is 10 nM.
